Read-outs that look alike come from different tables or passages of the source.
Target: T1, acetylcholine muscarinic M1 receptor (Homo sapiens, UniProt P11229)
T1 construct: expressed in transfected cells; host or cells: CHOnfat (CHO cells; also called CHOK1/hM1)
T1 sequence (P11229 1-460): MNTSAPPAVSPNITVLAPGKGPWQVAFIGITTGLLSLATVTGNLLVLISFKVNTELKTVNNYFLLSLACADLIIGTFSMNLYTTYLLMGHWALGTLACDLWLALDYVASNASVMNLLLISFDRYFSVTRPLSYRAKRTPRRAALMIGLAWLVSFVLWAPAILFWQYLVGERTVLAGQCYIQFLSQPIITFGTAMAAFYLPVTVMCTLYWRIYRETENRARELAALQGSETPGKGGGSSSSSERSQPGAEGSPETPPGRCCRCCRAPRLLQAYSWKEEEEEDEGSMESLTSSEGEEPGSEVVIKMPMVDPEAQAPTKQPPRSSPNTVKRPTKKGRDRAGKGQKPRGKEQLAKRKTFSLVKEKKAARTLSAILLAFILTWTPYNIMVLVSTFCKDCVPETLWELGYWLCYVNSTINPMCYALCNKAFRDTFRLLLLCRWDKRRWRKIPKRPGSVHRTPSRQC
Assay: M1 FLIPR assay: intracellular calcium, potentiation of acetylcholine EC20
Format: cell-based
Experimental: The assay studies the effect of one or several concentrations of test compounds on basal or acetylcholine-stimulated Ca^2+ levels using FLIPR.
For each compounds of the invention that was evaluated, the compound is prepared and subjected to a pre-incubation period of four minutes. Thereafter, a single EC20 concentration of acetylcholine is added to each well (3 nM final). The intracellular Ca^2+ level of each sample is measured and compared to an acetylcholine control to determine any modulatory activity.
Cells: CHOnfat/hM1, hM2, hM3 or hM4 cells are plated 24 hours before the assay at a density of 18,000 cells/well (100 μL) in a 384 well plate. CHOnfat/hM1 and CHOnfat/hM3 Growth Medium: 90% DMEM (Hi Glucose); 10% HI FBS; 2 mM L-glutamine; 0.1 mM NEAA; Pen-Strep; and 1 mg/ml Geneticin, are added. For M2Gqi5CHOnfat and M4Gqi5CHOnfat cells, an additional 600 μg/ml hygromycin is added.
Dye Loading Buffer: Assay Buffer plus 1% Fetal Bovine Serum and Fluo-4AM/Pluronic Acid Mixture. […] 20% Pluronic acid solution stock, with a concentration of 0.04% in Buffer, 0.02% in Assay. 65 μL of 2 mM Fluo-4AM are mixed with 130 μL of 20% pluronic acid. The resulting solution and 650 μL FBS is added to the assay buffer for a total volume of 65 mL.
Positive Controls: 4-Br-A23187: 10 mM in DMSO, final concentration 10 μM. Acetylcholine: […], working stock at both 20 μM and 30 μM in assay buffer, final concentration of 10 μM. This is used to check the maximum stimulation of the CHOK1/hM1 cells. 20 μM (2×) acetylcholine is added in the preincubation part of the assay, and the 30 μM (3×) stock is added in the second part. (EC20)Acetylcholine: 10 mM in water, working stock of 9 nM (3×), and final concentration in assay is 3 nM. This is used after the preincubation with test compounds. Addition of the EC20 Acetylcholine to each well with a test compound will ascertain any modulator activity. 24 wells contain 3 nM Acetylcholine alone as a control.
Four 96-well plates are combined into a 384-well plate using Mosquito Nanoliter Pipetting System by transferring 1 μl of serial diluted compounds to each well, and 1 mM acetylcholine (100× stock concentration) were added as a control. Using Temo, 49 μl assay buffer is added to each well of the 384-well plate right before assay.
In a 96-well Whatman 2 ml Uniplate, 9 nM Acetylcholine (3×) is pipetted into wells corresponding to the screening compounds, and into control wells. The 30 μM acetylcholine control (3×) is added into control wells, and the 3× agonist plate is transferred into a 384 well plate.
Cells are washed three times with 100 μL of buffer, leaving 30 μL of buffer in each well. Using Multimek, 30 μL of Dye Loading Buffer is added into each well and incubated at 37° C., 5% CO2 for up to one hour.
After 60 minutes, the cells are washed three times with 100 μL of buffer, leaving 30 μL of buffer in each well. The cell plate, screening plate, and agonist addition plates are placed on the platform in the FLIPR and the door closed. A signal test to check background fluorescence and basal fluorescence signal is performed. Laser intensity is adjusted if necessary.
Four minutes of pre-incubation with the test compounds is provided to determine any agonist activity on the M1 receptor by comparison to the […] acetylcholine control. After pre-incubation, the EC20 value of acetylcholine (3 nM final) is added to determine any modulator activity.

[1] = inflection point value from FLIPR assay, CHOnfat/hM1 cells, 4 min pre-incubation, then acetylcholine EC20 (3 nM final), Table 1, Formula (III), read-out: M1 IP Value
[2] = M1 activity in a FLIPR assay, Table 3, Examples 1-12, read-out: M1 Potential

SMILES	EC50 [1] [nM]	EC50 [2] [nM]	other results
COc1c(C(=O)N[C@H]2CCCC[C@@H]2O)cc(Cc2ccc(SC)nc2)c2ccccc12 [Compound 1-9]	169	–	–
O=C(N[C@H]1CCCC[C@@H]1O)c1cc(Cc2ccc(-n3cccn3)nc2)c2ccccc2c1O [Example 6, 1-Hydroxy-N-[(1S,2S)-2-hydroxycyclohexyl]-4-{[6-(1H-pyrazol-1-yl)pyridine-3-yl]methyl}-2-naphthamide]	–	4710	–
COc1c(C(=O)N[C@H]2CCOC[C@@H]2O)cc(Cc2ccc(-c3ccc(C)nc3)nc2)c2ccccc12 [Compound 1-15]	22	–	–
COc1c(C(=O)N[C@H]2CCCC[C@@H]2O)cc(Cc2ccnc(C)c2)c2ccccc12 [Compound 1-11]	224	–	–
COc1c(C(=O)O)cc(Cc2ccc(NC(C)=O)cc2)c2ccccc12 [Compound 1-2]	1550	–	–
COc1ccc(Cc2cc(C(=O)O)c(OC)c3ccccc23)cc1 [Example 1, 1-Methoxy-4-(4-methoxybenzyl)-2-naphthoic acid]	–	3320	–
COc1c(C(=O)N[C@H]2CCOC[C@@H]2O)cc(Cc2ccc(-c3ccnc(C)c3)nc2)c2ccccc12 [Compound 1-14]	6.8	–	–
COc1c(C(=O)N[C@H]2CCOC[C@@H]2O)cc(Cc2ccc(C)nc2)c2ccccc12 [Compound 1-13]	87	–	–
COc1c(C(=O)N[C@H]2CCCC[C@@H]2O)cc(Cc2ccc(-n3cccn3)nc2)c2ccccc12 [Example 7, N-[(1S,2S)-2-Hydroxycyclohexyl]-1-methoxy-4-{[6-(1H-pyrazol-1-yl)pyridine-3-yl]methyl}-2-naphthamide]	–	82	–
COc1cc(Cc2cc(C(=O)N[C@H]3CCCC[C@@H]3O)c(OC)c3ccccc23)ccn1 [Compound 1-12]	140	–	–
COc1c(C(=O)O)cc(Cc2ccc(-n3cccn3)cc2)c2ccccc12 [Example 2, 1-Methoxy-4-[4-(1H-pyrazol-1-yl)benzyl]-2-naphthoic acid]	–	574	–
COc1c(C(=O)N[C@H]2CCCC[C@@H]2O)cc(CN2CCN(c3cnn(C)c3)CC2)c2ccccc12 [Example 8, N-[(1S,2S)-2-Hydroxycyclohexyl]-1-methoxy-4-{[4-(1-methyl-1H-pyrazol-4-yl)piperazin-1-yl]methyl}-2-naphthamide]	–	3880	–
COc1c(C(=O)N[C@H]2CCCC[C@@H]2O)cc(Cc2ccc(C)nc2)c2ccccc12 [Example 4]	–	121	–
CCOc1c(C(=O)N[C@H]2CCCC[C@@H]2O)cc(Cc2ccc(Cl)nc2)c2ccccc12 [Example 12]	–	985	–
COc1c(C(=O)N[C@H]2CCCC[C@@H]2O)cc(Cc2ccc(-c3cnn(C)c3)nc2)c2ccccc12 [Example 5, N-[(1S,2S)-2-Hydroxycyclohexyl]-1-methoxy-4-{[6-(1-methyl-1H-pyrazol-4-yl)pyridine-3-yl]methyl}-2-naphthamide]	–	17	–
COc1c(C(=O)N[C@H]2CCCC[C@@H]2O)cc(Cc2ccnc(SC)c2)c2ccccc12 [Example 11, N-[(1S,2S)-2-Hydroxycyclohexyl]-1-methoxy-4-{[2-(methylthio)pyridin-4-yl]methyl}-2-naphthamide]	–	281	–
COc1c(C(=O)N[C@H]2CCCC[C@@H]2O)cc(Cc2ccc(-c3cccnc3)nc2)c2ccccc12 [Compound 1-3]	24	–	–
COc1c(C(=O)O)cc(Cc2ccc(-c3ccccc3)cc2)c2ccccc12 [Compound 1-1]	872	–	–
CCc1ccc(Cc2cc(C(=O)N[C@H]3CCCC[C@@H]3O)c(OC)c3ccccc23)cn1 [Example 9, N-[(1S,2S)-2-Hydroxycyclohexyl]-1-methoxy-4-[(6-ethylpyridin-3-yl)methyl]-2-naphthamide]	–	190	–
COc1ccc(Cc2cc(C(=O)N[C@H]3CCCC[C@@H]3O)c(OC)c3ccccc23)cn1 [Compound 1-7]	280	–	–
COc1c(C(=O)N[C@H]2CCCC[C@@H]2O)cc(Cc2ccc(Cl)nc2)c2ccccc12 [Example 3, 4-[(6-Chloropyridin-3-yl)methyl]-N-[(1S,2S)-2-hydroxycyclohexyl]-1-methoxy-2-naphthamide]	–	260	–
COc1c(C(=O)N[C@H]2CCOC[C@@H]2O)cc(Cc2ccc(Cl)nc2)c2ccccc12 [Example 10, 4-[(6-Chloropyridin-3-yl)methyl]-N-[(3R,4S)-3-hydroxytetrahydro-2H-pyran-4-yl]-1-methoxy-2-naphthamide]	–	56	–
C=CCOc1c(C(=O)N[C@H]2CCCC[C@@H]2O)cc(Cc2ccc(Cl)nc2)c2ccccc12 [Compound 2-2]	–	–	EC50 (inflection point value from FLIPR assay, CHOnfat/hM1 cells, 4 min pre-incubation, then acetylcholine EC20 (3 nM final), Table 2, Formula (IV), read-out: M1 IP Value): 1140 nM

Source: patent US8883850B2, “Naphthalene carboxamide M1 receptor positive allosteric modulators” (Merck Sharp & Dohme Corp., priority 2010, dated 2014)
